Results taken from patent US9617286B2, “Fungicide N-[(trisubstitutedsilyl)methyl]-carboxamide derivatives” (BAYER INTELLECTUAL PROPERTY GMBH, priority 2011, dated 2017).

Key:
[1] = log P by HPLC on reversed-phase column (C 18), EEC Directive 79/831 Annex V.A8; format: physicochemical; settings: 40° C., 0.1% aqueous formic acid and acetonitrile, linear gradient 10% to 90% acetonitrile
Procedure: In table 1, the log P values were determined in accordance with EEC Directive 79/831 Annex V.A8 by HPLC (High Performance Liquid Chromatography) on a reversed-phase column (C 18), using the method described below:
Temperature: 40° C.; Mobile phases: 0.1% aqueous formic acid and acetonitrile; linear gradient from 10% acetonitrile to 90% acetonitrile.
Calibration was carried out using unbranched alkan-2-ones (comprising 3 to 16 carbon atoms) with known log P values (determination of the log P values by the retention times using linear interpolation between two successive alkanones). lambda-max-values were determined using UV-spectra from 200 nm to 400 nm and the peak values of the chromatographic signals.

[2] = test system: Pyrenophora teres; experiment: In vivo preventive test on Pyrenophora teres (barley); settings: preventive spray (DMF/alkylaryl polyglycol ether), 500 ppm of active ingredient, evaluated 7-9 days after inoculation
Procedure: Solvent: 49 parts by weight of N,N-dimethylformamide Emulsifier: 1 part by weight of alkylaryl polyglycol ether To produce a suitable preparation of active compound, 1 part by weight of active compound is mixed with the stated amounts of solvent and emulsifier, and the concentrate is diluted with water to the desired concentration. To test for preventive activity, young plants are sprayed with the preparation of active compound at the stated rate of application. One day after this treatment, the plants are inoculated with an aqueous spore suspension of Pyrenophora teres. The plants remain for 48 hours in an incubation cabinet at 22° C. and a relative atmospheric humidity of 100%. Then the plants are placed in a greenhouse at a temperature of approximately 20° C. and a relative atmospheric humidity of approximately 80%.

Row | logP [1] | Compound | Efficacy [2] [%]
1 | 5.45 | C[Si](C)(Cc1cccc(Cl)c1)CN(C(=O)c1ccccc1I)C1CC1 [Example 107] | –
2 | 5.00 | C[Si](C)(Cc1ccccc1)CN(C(=O)c1ccccc1I)C1CC1 [Example 95] | –
3 | 3.96 | C[Si](C)(CN(C(=O)c1cccnc1Cl)C1CC1)c1cccc(Cl)c1 [Example 35] | –
4 | 4.23 | C[Si](C)(CN(C(=O)c1cccnc1Cl)C1CC1)c1ccc2ccccc2c1 [Example 75] | –
5 | 5.25 | C[Si](C)(CN(C(=O)c1ccccc1C(F)(F)F)C1CC1)c1ccc2ccccc2c1 [Example 80] | –
6 | 3.50 | C[Si](C)(CN(C(=O)c1cccnc1Cl)C1CC1)c1ccccc1 [Example 4] | –
7 | 5.03 | C[Si](C)(CN(C(=O)c1ccccc1C(F)(F)F)C1CC1)c1cccc(Cl)c1 [Example 31] | –
8 | 6.14 | C[Si](C)(Cc1cc(Cl)cc(Cl)c1)CN(C(=O)c1ccccc1I)C1CC1 [Example 119] | –
9 | 4.56 | C[Si](C)(CN(C(=O)c1cccnc1C(F)(F)F)C1CC1)c1ccc2ccccc2c1 [Example 78] | 95
10 | 3.87 | C[Si](C)(Cc1ccccc1)CN(C(=O)c1cccnc1Cl)C1CC1 [Example 94] | –
11 | 4.16 | CCc1ccccc1[Si](C)(C)CN(C(=O)c1cccnc1Cl)C1CC1 [Example 18] | –
12 | 5.03 | C[Si](C)(CN(C(=O)c1ccccc1C(F)(F)F)C1CC1)c1ccccc1Cl [Example 25] | –
13 | 5.88 | C[Si](C)(CN(C(=O)c1ccccc1I)C1CC1)c1ccc(Cl)cc1Cl [Example 60] | –
14 | 5.31 | C[Si](C)(CN(C(=O)c1ccccc1I)C1CC1)c1cccc2ccccc12 [Example 70] | –
15 | 5.14 | C[Si](C)(CN(C(=O)c1ccccc1I)C1CC1)c1ccccc1Cl [Example 24] | –
16 | 4.49 | C[Si](C)(CN(C(=O)c1ccccc1I)C1CC1)c1ccsc1 [Example 89] | –
17 | 5.14 | C[Si](C)(CN(C(=O)c1ccccc1I)C1CC1)c1cccc(Cl)c1 [Example 30] | –
18 | 4.30 | C[Si](C)(Cc1cccc(Cl)c1)CN(C(=O)c1cccnc1Cl)C1CC1 [Example 106] | –
19 | 5.31 | C[Si](C)(Cc1cccc(Cl)c1)CN(C(=O)c1ccccc1C(F)(F)F)C1CC1 [Example 108] | –
20 | 4.15 | C[Si](C)(CN(C(=O)c1cccnc1Cl)C1CC1)c1cccc2ccccc12 [Example 69] | –
21 | 5.45 | C[Si](C)(Cc1ccccc1Cl)CN(C(=O)c1ccccc1I)C1CC1 [Example 101] | –
22 | 3.94 | C[Si](C)(CN(C(=O)c1cccnc1Cl)C1CC1)c1ccccc1Cl [Example 23] | –
23 | 5.72 | C[Si](C)(CN(C(=O)c1ccccc1C(F)(F)F)C1CC1)c1ccc(Cl)cc1Cl [Example 61] | –
24 | 6.14 | C[Si](C)(Cc1ccc(Cl)cc1Cl)CN(C(=O)c1ccccc1I)C1CC1 [Example 113] | –
25 | 4.59 | C[Si](C)(CN(C(=O)c1ccccc1I)C1CC1)c1cccs1 [Example 84] | –
26 | 4.34 | C[Si](C)(CN(C(=O)c1cccnc1C(F)(F)F)C1CC1)c1cccc(Cl)c1 [Example 33] | 80
27 | 5.36 | C[Si](C)(CN(C(=O)c1ccccc1I)C1CC1)c1ccc2ccccc2c1 [Example 76] | –
28 | 4.04 | C[Si](C)(CN(C(=O)c1cccnc1Cl)C1CC1)c1ccccc1C(F)(F)F [Example 53] | –
29 | 5.65 | C[Si](C)(CN(C(=O)c1ccccc1C(F)(F)F)C1CC1)c1cc(Cl)cc(Cl)c1 [Example 66] | –

Second part, the molecule before the results:

Row | Compound | logP [1] | Efficacy [2] [%]
30 | C[Si](C)(Cc1ccccc1)CN(C(=O)c1cccnc1C(F)(F)F)C1CC1 [Example 97] | 4.19 | –
31 | C[Si](C)(CN(C(=O)c1cccnc1Cl)C1CC1)c1cccs1 [Example 83] | 3.39 | –
32 | C[Si](C)(Cc1cc(Cl)cc(Cl)c1)CN(C(=O)c1nccnc1C(F)(F)F)C1CC1 [Example 116] | 5.45 | –
33 | C[Si](C)(Cc1ccc(Cl)cc1Cl)CN(C(=O)c1nccnc1C(F)(F)F)C1CC1 [Example 111] | 5.45 | 95
34 | C[Si](C)(Cc1ccccc1)CN(C(=O)c1ccccc1C(F)(F)F)C1CC1 [Example 96] | 4.90 | –
35 | C[Si](C)(CN(C(=O)c1cccnc1C(F)(F)F)C1CC1)c1cccc2ccccc12 [Example 73] | 4.51 | –
36 | CC1=C(C(=O)N(C[Si](C)(C)c2ccccc2Cl)C2CC2)SCCO1 [Example 43] | 4.29 | –
37 | C[Si](C)(CN(C(=O)c1ccccc1C(F)(F)F)C1CC1)c1cccs1 [Example 85] | 4.51 | –
38 | C[Si](C)(CN(C(=S)c1cccnc1C(F)F)C1CC1)c1ccc(Cl)cc1Cl [Example 124] | 5.13 | –
39 | CCc1ccccc1[Si](C)(C)CN(C(=O)c1cccnc1C(F)F)C1CC1 [Example 19] | 4.06 | –
40 | C[Si](C)(CN(C(=O)c1cccnc1C(F)(F)F)C1CC1)c1ccccc1Cl [Example 27] | 4.31 | –
41 | C[Si](C)(CN(C(=O)c1cccnc1Cl)C1CC1)c1ccsc1 [Example 88] | 3.33 | –
42 | C[Si](C)(CN(C(=O)c1ccccc1C(F)(F)F)C1CC1)c1cccc2ccccc12 [Example 71] | 5.19 | –
43 | C[Si](C)(CN(C(=O)c1cccnc1C(F)F)C1CC1)c1cc(Cl)cc(Cl)c1 [Example 68] | 4.49 | 80
44 | C[Si](C)(CN(C(=O)c1cccnc1C(F)(F)F)C1CC1)c1cccs1 [Example 81] | 3.80 | –
45 | C[Si](C)(CN(C(=O)c1nccnc1C(F)(F)F)C1CC1)c1cc(Cl)cc(Cl)c1 [Example 64] | 4.95 | –
46 | C[Si](C)(CN(C(=S)c1nccnc1C(F)(F)F)C1CC1)c1ccc2ccccc2c1 [Example 126] | 5.35 | –
47 | C[Si](C)(CN(C(=O)c1nccnc1C(F)(F)F)C1CC1)c1ccc(Cl)cc1Cl [Example 58] | 5.25 | 100
48 | C[Si](C)(Cc1ccccc1Cl)CN(C(=O)c1ccccc1C(F)(F)F)C1CC1 [Example 102] | 5.31 | –
49 | C[Si](C)(Cc1ccc(Cl)cc1Cl)CN(C(=O)c1ccccc1C(F)(F)F)C1CC1 [Example 114] | 5.94 | –
50 | C[Si](C)(Cc1ccc(Cl)cc1Cl)CN(C(=O)c1cccnc1C(F)(F)F)C1CC1 [Example 115] | 5.22 | –

Row | Compound | logP [1] | Efficacy [2] [%]
51 | C[Si](C)(CNC(=O)c1cccnc1C(F)F)c1ccc(Cl)cc1Cl [Example 57] | 3.64 | –
52 | C[Si](C)(CN(C(=O)c1nccnc1C(F)(F)F)C1CC1)c1cccs1 [Example 82] | 4.01 | 95
53 | C[Si](C)(Cc1ccc(Cl)cc1Cl)CN(C(=O)c1cccnc1Cl)C1CC1 [Example 112] | 4.90 | –
54 | C[Si](C)(Cc1ccccc1Cl)CN(C(=O)c1cccnc1Cl)C1CC1 [Example 100] | 4.25 | –
55 | C[Si](C)(CN(C(=O)c1ccccc1C(F)(F)F)C1CC1)c1ccsc1 [Example 90] | 4.44 | –
56 | C[Si](C)(CN(C(=S)c1cccnc1C(F)F)C1CC1)c1ccc2ccccc2c1 [Example 125] | 4.72 | –
57 | C[Si](C)(Cc1ccccc1Cl)CN(C(=O)c1cccnc1C(F)(F)F)C1CC1 [Example 103] | 4.59 | –
58 | C[Si](C)(Cc1ccccc1Cl)CN(C(=S)c1cccnc1C(F)F)C1CC1 [Example 127] | 4.76 | –
59 | C[Si](C)(Cc1cc(Cl)cc(Cl)c1)CN(C(=O)c1cccnc1Cl)C1CC1 [Example 118] | 4.92 | –
60 | C[Si](C)(CNC(=S)c1cccnc1C(F)F)c1ccccc1Cl [Example 123] | 3.83 | –
61 | CC1=C(C(=O)NC[Si](C)(C)c2ccccc2)SCCO1 [Example 6] | 3.13 | –
62 | C[Si](C)(Cc1ccccc1Cl)CN(C(=O)c1cccnc1C(F)F)C1CC1 [Example 98] | 4.11 | –
63 | C[Si](C)(Cc1cc(Cl)cc(Cl)c1)CN(C(=O)c1ccccc1C(F)(F)F)C1CC1 [Example 120] | 5.94 | –
64 | CC[Si](C)(CN(C(=O)c1cccnc1C(F)(F)F)C1CC1)c1ccccc1Cl (stereo not shown) [Example 37] | 4.71 | –
65 | C[Si](C)(CN(C(=O)c1cccnc1Cl)C1CC1)c1ccc(Cl)cc1Cl [Example 59] | 4.64 | –
66 | CN(C[Si](C)(C)c1cc(Cl)cc(Cl)c1)C(=O)c1cccnc1C(F)F [Example 122] | 3.92 | –
67 | C[Si](C)(CN(C(=O)c1cccnc1Cl)C1CC1)c1cc(Cl)cc(Cl)c1 [Example 65] | 4.61 | –
68 | C[Si](C)(Cc1cc(Cl)cc(Cl)c1)CN(C(=O)c1cccnc1C(F)(F)F)C1CC1 [Example 121] | 5.22 | –
69 | C[Si](C)(Cc1cccc(Cl)c1)CN(C(=O)c1cccnc1C(F)(F)F)C1CC1 [Example 109] | 4.61 | –
70 | C[Si](C)(CN(C(=O)c1cccnc1C(F)(F)F)C1CC1)c1cc(Cl)cc(Cl)c1 [Example 67] | 4.95 | –
